Measurements as given in article PMC12428754, “Testing Strategies for Metabolite-Mediated Neurotoxicity” (International Journal of Molecular Sciences, 2025).

Key:
[1] = for metabolite formation over time: samples every 30 min for 2 h
Procedure: Parent compounds were incubated at final concentrations of either (a) 5 µM or (b) 50 µM (for chlorfenapyr) with pooled human liver microsomes (HLM; mixed gender, n = 150; BioIVT; West Sussex, UK) at corresponding protein concentrations of (a) 0.52 mg/mL or (b) 5.2 mg/mL. Incubations were performed in the absence or presence of NADPH at final concentrations of (a) 1 mM or (b) 10 mM, respectively, using a thermostated orbital shaker at 37 °C and 150 rpm. Reactions were terminated at designated time points by the addition of acetonitrile/methanol (3:1, v/v). Samples were then centrifuged at 10,000× g for 10 min, and the resulting supernatants were analysed by LC-MS/MS.
All analytes were measured using an Acquity UPLC H-Class system coupled to a Xevo TQ-S micro mass spectrometer (Waters). Chromatographic separation was performed on an Acquity UPLC BEH C18 column (2.1 × 50 mm, 1.7 µm) with a mobile phase consisting of 0.1% formic acid in water (A) and acetonitrile (B). Unless otherwise stated, the column was maintained at 30 °C and operated at a flow rate of 0.4 mL/min. The standard gradient was 95% A from 0 to 1.0 min, decreased to 2% A by 1.5 min, held until 4.0 min, returned to 95% A at 4.3 min, and held until 5.0 min. […] The mass spectrometer operated in electrospray ionisation (ESI) mode. Compound-specific MRM transitions, cone voltages, and collision energies for all analytes are listed in Supplementary Table S2.
Int. J. Mol. Sci. 2025, 26, x FOR PEER REVIEW 3 of 5
Supplementary Figure S3: Quantification of specific metabolite formation from selected parent/metabolite pairs in a human liver microsomes (HLM) assay. Parent compounds (PAR) were incubated at a concentration of 5 µM (50 µM for chlorfenapyr) with HLM in the absence (dashed line, open symbols) or presence of NADPH (solid lines, closed symbols). Samples were taken every 30 min for 2 h (+NADPH) or at 2 h only (- NADPH). The remaining fraction of the PAR was quantified for each sample. Additionally, one key metabolite (MET) was measured. Its amount is expressed as fraction of PAR converted to MET, assuming an equimolar PAR to MET reaction, 100 % indicates a complete conversion. The middle-dashed line indicates a metabolite formation of at least 10% of PAR. Data are means of two measurements n.d. = not detected.
(1 picture or pasted object on this page, not shown here)

LUHMES cells = conditions: rat liver S9 50 µg/mL in testing module, 2 h preincubation, RFP-LUHMES; toxicity increased with NADPH
Procedure: Figure 4 A strategy to incorporate metabolic competence into in vitro DNT testing methods. (A) A schematic overview of a sequential metabolism and testing approach. The “metabolisation module” uses hepatic post-mitochondrial fractions (S9) to generate metabolite mixtures in the presence or absence of cofactors (NADPH, glucose-6-phosphate, MgCl2). These metabolite mixtures are tested in the “testing module” in a concentration-dependent manner after serial pre-dilutions. Metabolite mixtures are added as a fraction of 10% to the media volume of the “testing module”. The testing module may be a cell-based neurotoxicity (NT) or developmental neurotoxicity (DNT) assay, such as the neurite outgrowth or migration assay. Here, the Mito-Met neurite outgrowth assay, as in Figure 1, was used. […] The curves represent data from three independent experiments and were fitted using a four-parameter Hill function. […] The data represent three independent experiments. The indicated concentrations are “testing module” concentrations.
To further evaluate our modular pre-activation strategy for identifying metabolite-mediated hazard, we tested a broader panel of compounds. For each compound (parent), a single concentration was used in the metabolisation module. The metabolite mixtures were generated in the absence or presence of NADPH. These metabolite mixtures were serially diluted and assessed using the MitoMet neurite outgrowth assay. As a measure of potency, EC25 values were determined, and potency ratios were calculated to compare the effects of NADPH-dependent versus NADPH-independent metabolism.
Figure 5 The effect of NADPH-dependent hepatic metabolism on the DNT of selected compounds. (A) A strategy scheme to assess the effect of metabolic enzymes on the outcome of cell-based DNT assays. Metabolite mixtures are generated using the NADPH-(in)dependent metabolic activity of S9. NADPH-independent metabolism is shown in green (light grey). NADPH-dependent metabolism is shown in red (dark grey). […] (B–F) The concentration-dependent effect of metabolite mixtures on neurite outgrowth was measured as in Figure 1, with the following modifications: red-fluorescent-protein (RFP)-expressing LUHMES cells were used. As the assay endpoint, the RFP fluorescence of neurites was used instead of calcein staining. The curves represent data from three independent experiments and were fitted using a four-parameter Hill function. From this, an EC25 was calculated. Bold numbers indicate the fold changes between EC25 values of the NADPH-(in)dependent metabolite mixtures, with the direction of the arrow reflecting the shift in sensitivity. Note that the x-axes indicate nominal concentrations of parent compounds. […] Similar images were used for neurite quantification. The right image (red frame) of the pairs was obtained with NADPH. The black arrowheads above the curves indicate the experimental conditions used to record images. The scale bar in orange corresponds to 50 µm.
The MitoMet neurite outgrowth assay was performed as previously described. In brief, all cell culture dishes and flasks were pre-coated with 50 μg/mL poly-l-ornithine (PLO) and 1 μg/mL fibronectin. Proliferating LUHMES cells were maintained in AdvDMEM/F12 containing L-glutamine (2 mM), N2 supplement (1x), and FGF (40 ng/mL). For pre-differentiation, the cells were replated at a density of 46,000 cells/cm^2 one day prior to the induction of differentiation (defined as the day of differentiation, Day −1). Differentiation was initiated by exchanging the culture medium for AdvDMEM/F12 supplemented with L-glutamine (2 mM), N2 supplement (1x), dibutyryl-cAMP (1 mM), tetracycline (1 µg/mL), and GDNF (2 ng/mL). After two days of differentiation (Day 2), the cells were replated (100,000 cells/cm^2) into 96-well plates.

[2] = human liver microsomes, listed under the metabolite

Row | SMILES | extent of metabolite formation ([1]; human liver microsomes, result in words) | metabolite formation over time [1, 2] | fold change between EC25 values of NADPH-independent and NADPH-dependent metabolite mixtures (toxification) (LUHMES cells) [x] | cofactor (NADPH) dependence of metabolite formation ([1]; human liver microsomes ± NADPH, result in words) | conversion rate of parent to metabolite ([1]; human liver microsomes, up to 2 h, listed under the metabolite)
1 | O=C(c1ccccc1)c1ccc(O)cc1 [4-Hydroxybenzophenone] | only trace amounts | time-dependent increase in metabolite formation |  |  | 
2 | CN(c1c(Br)cc(Br)cc1Br)c1c([N+](=O)[O-])cc([N+](=O)[O-])cc1C(F)(F)F [Bromethalin] |  |  | 8 |  | 
3 | CCOCn1c(-c2ccc(Cl)cc2)c(C#N)c(Br)c1C(F)(F)F [Chlorfenapyr] |  |  | > 6 |  | 
4 | N#Cc1c(-c2ccc(Cl)cc2)[nH]c(C(F)(F)F)c1Br [Tralopyril] |  | time-dependent increase in metabolite formation |  | clearly dependent on NADPH | approximately 10%
